Measurements reported in US20210341448A1, “SCREENING METHOD FOR THERAPEUTIC DRUG OR PROPHYLACTIC DRUG FOR TAUOPATHY AND DIAGNOSTIC METHOD FOR TAUOPATHY” (National Center for Geriatrics and Gerontology, priority 2018, published 2021).

Experiments:
NMDAR = biological target: T1, NMDAR (Homo sapiens, UniProt Q05586); assay: Measurement of calcium influx through NMDAR into NT2-N cells; assay type: cell-based
T1 construct: endogenous in cells; host or cells: NT2-N neurons differentiated from NTERA-2 cl.D1 [NT2/D1] cells (ATCC CRL-1973)
Description: Cultured neurons expressing NMDARs retaining physiological functions were prepared by the following procedure to evaluate the NMDAR activation ability of the tau oligomer. The NTERA-2 cl.D1[NT2/D1] cells (ATCC CRL-1973) (hereinafter described as “NT2 cell”), which are derived from a human pluripotent embryonic cancer, were adhesively cultured on 10-cm plastic dish in maintenance culture medium (high glucose DMEM (Sigma-Aldrich, D6429), 10% FBS, 100 U/ml penicillin/streptomycin) under the conditions of 37° C. and 5% CO2 for 3 to 4 days until the confluency stage was attained. The NT2 cells were detached using Accutase (Innovative Cell Technologies, #AT104), were passaged, and were maintained over a period of 50 days. The medium was replaced 3 times a week.
The maintenance-cultured NT2 cells were dispersed in a low attachment petri dish (STAR SDish9015, RIKAKEN CO., LTD.) in a concentration of 1.5×10^6 to 2.5×10^6/dish, suspension-cultured under the conditions of 37° C. and 5% CO2 on a shaker (100 rpm), and 1 day later were induced to differentiate by adding 1 μM of all-trans-retinoic acid (abcam), to thereby form spheroids. 14 days later, the spheroids were collected, seeded in a 10-cm dish coated with 5 μg/ml of poly-D-lysin (PDL) (Sigma-Aldrich)/Laminin (LAM) (iMatrix-511, Nippi Inc.) and adhesively cultured under the conditions of 37° C. and 5% CO2. From the following day, the culture was carried out by adding 3 kinds of cell division inhibitors (10 μM of uridine, 10 μM of floxuridine, and 1 μM of AraC). […]
For analysis, 5 to 10 regions of the visual field of the NT2-N cells positioned in the system were manually set and the fluorescence intensities were recorded for each region, for Cal-520, every 1 minute for 1 hour continuously at excitation wavelength 480 nm/fluorescence emission wavelength 520 nm, and for Fluo-8, every 2 seconds for 5 minutes continuously at excitation wavelength 480 nm/fluorescence emission wavelength 520 nm. […]

NMDA receptor = assay: NMDAR-based sandwich ELISA; assay type: binding, mouse; settings: tau oligomer solution of 10^−11 g/ml or less
membrane protein (NMDAR) = assay: Membrane protein-based sandwich ELISA; assay type: binding, mouse
Description: Pellets of the membrane protein obtained from tau knockout brain by the procedure of the above (7-1) were dissolved in 2% cholic acid or 1% deoxycholate/buffer (50 mM of HEPES, 150 mM of NaCl, pH 7.4), and the solution was centrifuged at 4° C., 150,000×g for 30 minutes to thereby collect the supernatant to use as a membrane protein solution. The obtained membrane protein solution was applied to an ELISA plate (Sumitomo Bakelite Co., Ltd., MS-8596F) and incubated at 4° C. for 60 minutes to thereby coat the plate with the membrane protein. After washing with wash solution (0.004 to 0.008% MNG-3, 50 mM of HEPES, pH 7.4), blocking was done by adding 1% FBS-containing wash solution and incubating at 4° C. for 60 minutes. The solvent of the HT-tau oligomer sample prepared in the above (1-4) was replaced with the wash solution using a protein concentrator (10K MWCO, Pierce, 88526) to thereby prepare a tau oligomer solution of 10^−16 to 10^−6 g/ml. These solutions were applied to the plate and incubated at 4° C. for 15 to 60 minutes. Then, the plate was washed thoroughly with the wash solution and a 5% skim milk-containing wash solution was added, followed by incubating at room temperature for 30 minutes to thereby block the protein. After washing using the wash solution, an anti-HaloTag antibody/wash solution (1:1000 dilution) was added and incubated at room temperature for 30 minutes. Subsequently, the plate was washed with the wash solution, an HRP-labelled secondary antibody/wash solution (Invitrogen, A27036) (1:5000 dilution) was added and incubated at room temperature for 30 minutes. Then, chromogenic reactions were carried out using an Ultra TMB solution (Thermo Fisher Scientific, 34028) to detect the tau oligomers bound to the membrane protein.

tau oligomer: polymer of human tau 2N4R monomers, polymerized with mouse brain extract and ATP, collected as pellets
increase of intracellular calcium concentration (NMDAR activation ability) (NMDAR; Cal-520, NT2-N cells, 3 minutes after administration): has the NMDAR activation ability | intracellular calcium concentration (NMDAR; Fluo-8, NT2-N cells, 100 μl of 0.03 μg/ml in HHBS): increased over time | binding of the tau oligomer to the NMDA receptor (NMDA receptor): increased in a concentration-dependent manner | amount of tau oligomer bound to membrane protein (membrane protein (NMDAR); tau oligomer solution of 10^−8 g/ml or higher): increased in a concentration-dependent manner | binding of the tau oligomer to membrane protein (membrane protein (NMDAR); tau oligomer solution of 10^−11 g/ml or lower): detected
